Among the data in ChEMBL document CHEMBL1153703, “Cell-based optimization of novel benzamides as potential antimalarial leads” (Bioorg Med Chem Lett, 2009) are AUC, CC50 and selectivity ratio values, retold here.

For data set [1], the system named is Mus musculus. Put plainly: AUC (0 to 5 hrs) in BALB/c mouse at 20 mg/kg. The note with it: in vivo, 4 h. The arrangement: time < 4 hr, dose 20 mg/kg. The data set is classed as ADME, organism-based, Plasma.
Data set [2] has as its system Mus musculus. Kind of data set: Dose normalised AUC (0 to 5 hrs) in BALB/c mouse at 20 mg/kg, po. It is filed as ADME, organism-based. The arrangement: time < 4 hr, dose 20 mg/kg, route oral. The note with it: in vivo, 4 h.
A short description of data set [3]: Cytotoxicity against CHO cells. It is filed as cell-based, Cricetulus griseus. The note with it: chinese hamster, read-out: TC50 (the source's name).
Data set [4] can be described thus: Selectivity index, TC50 for human Hep2 cells to EC50 for chloroquine-sensitive Plasmodium falciparum 3D7. The data set is classed as toxicity, cell-based, HEp-2. The note with it: read-out: Selectivity Index.
Data set [5] can be described thus: Cytotoxicity against human 293T cells. Conditions: read-out: TC50 (the source's name). The data set is classed as cell-based, HEK-293T.
The nature of data set [6]: Cytotoxicity against mouse BAF3 cells. It is filed as cell-based. Conditions: read-out: TC50 (the source's name).
Data set [7] in a line: Cytotoxicity against human HuH7 cells. The data set is classed as cell-based, Huh-7. Conditions: read-out: TC50 (the source's name).
Data set [8] in a line: Cytotoxicity against human Hep2 cells. Conditions: read-out: TC50 (the source's name). It is filed as cell-based, HEp-2.
The nature of data set [9]: Selectivity index, TC50 for mice (Mus musculus) BAF3 cells to EC50 for chloroquine-sensitive Plasmodium falciparum 3D7. The note with it: read-out: Selectivity Index. The data set is classed as toxicity, cell-based.
Data set [10] in a line: Cytotoxicity against human HeLa cells. The note with it: read-out: TC50 (the source's name). It is filed as cell-based.
A short description of data set [11]: Selectivity index, TC50 for human HeLa cells to EC50 for chloroquine-sensitive Plasmodium falciparum 3D7. The data set is classed as toxicity, cell-based. The note with it: read-out: Selectivity Index.
Data set [12] in a line: Selectivity index, TC50 for CHO cells to EC50 for chloroquine-sensitive Plasmodium falciparum 3D7. It is filed as toxicity, cell-based. The note with it: hamster, read-out: Selectivity Index.
A short description of data set [13]: Selectivity index, TC50 for human HuH7 cells to EC50 for chloroquine-sensitive Plasmodium falciparum 3D7. It is filed as toxicity, cell-based, Huh-7. Conditions: read-out: Selectivity Index.

Usually AUC stands for concentration integrated over time. As for `O=C(Nc1cccc(Cl)c1)c1cc(N2CCC(N3CCCCC3)CC2)cc(C(F)(F)F)c1`, the figures for the AUC in [1] and in [2] were 4.37 µM·h and 6.1 µg·min/mL, respectively.
The matching figures for `O=C(Nc1cc(Cl)cc(Cl)c1)c1cc(N2CCC(N3CCCC3)CC2)cc(C(F)(F)F)c1`: 4.81 µM·h and 7.01 µg·min/mL.
Turning to `O=C(Nc1cccc(Cl)c1)c1cc(N2CCC(N3CCCC3)CC2)cc(C(F)(F)F)c1`, the AUC in data set [1] was found to be 3.92 µM·h; in data set [2], 5.31 µg·min/mL.
In the same order, the values of `O=C(Nc1cccc(C(F)(F)F)c1)c1cc(N2CCc3ccccc3C2)cc(C(F)(F)F)c1` are 1.67 µM·h and 2.33 µg·min/mL.
`CC1CCN(C2CCN(c3cc(C(=O)Nc4cccc(Cl)c4)cc(C(F)(F)F)c3)CC2)CC1`: the AUC in data set [1] amounted to 7.93 µM·h; in data set [2] it was 11.42 µg·min/mL. Further, the CC50 in data set [3], in data set [5], in data set [6], in [7], in data set [8] and in [10] was > 8 µM each time. In addition, the selectivity ratio in data set [4], in data set [9], in [11], in [12] and in data set [13] was > 20 in each case.
Take `O=C(Nc1cc(N2CCC(N3CCCC3)CC2)cc(C(F)(F)F)c1)c1cccc(C(F)(F)F)c1`: the AUC in [1] was determined as 4.77 µM·h; in [2], 6.94 µg·min/mL.
